The text below walks through data of patent US20120277239A1, “Compositions and Methods for Improving Night Vision” (ALPHA SYNERGY DEVELOPMENT INC., priority 2011, published 2012).

The test system of one data set is eye redness. The conditions noted are these: brimonidine […]; for Redness (from 0 to 4) (right eye): pH 7.0 to right eye. The text has this: (§1) All pupil measurements were made using Marco video monitor pupillometry in a darkened room, which was captured via digital image capture and monitor adjustable caliper measurement. Once the dark adapted pupil was digitially captured, the instrument allows superiposition of a caliper with 0.1 mm increments to measure the pupil diameter.

A further data set has as its system scotopic pupil. The conditions noted are these: brimonidine […]; for % reduction of scotopic pupil size (left eye) / Scotopic pupil size (mm) (left eye): contralateral control left eye, pH 7.0 to right eye; for % reduction of scotopic pupil size (right eye) / Scotopic pupil size (mm) (right eye): treated right eye, pH 7.0.
Excerpt: as §1

The test system of a further data set is pupil size. Particulars: for Onset of pupil reduction / Pupil reduction at 1 hour (mm) / Range (pupil size) at 3 hours: brimonidine […], pH 7.0 q am. Here is the method:
The pupil size was measured at the baseline and then 10 minutes and 3 hours after instillation for 3 consecutive weeks.

Another data set concerns surface vasoconstriction. The conditions noted are these: brimonidine 0.01% to 0.05% weight by volume, particularly 0.01% to […].
In a further data set the test system is pupil size in dim light. Particulars: cited from earlier work.
The conditions of data set [1]: cited from earlier work; for side effects upon application: in vivo; for floppy iris syndrome: systemic or topical α1-adrenoceptor antagonist (Oshika et al).
The conditions of data set [2]: pH 7.1; with added constituents of a balanced salt solution. The text has this: The terms “salt” and “constituent of a balanced salt solution” are used interchangeably for the purposes of the present invention. They are a subset of agents that improve solubility of the inventive formulations.
Another data set has as its system pupil. The conditions noted are these: bunazosin at 0.3%; cited from earlier work.
The next data set relates to intraocular pressure. Particulars: bunazosin at 0.3%; measured 6 hours post instillation; cited from earlier work.
The subject of another data set is conjunctival hyperemia. Particulars: bunazosin at 0.3%; cited from earlier work.
[3] abbreviates: Day 2.1 (follows 20 days of consecutive use).

Structures can show the parent of a compound that is named as a salt. Where two headings read alike, the source gives them in different places.

In the case of `Brc1c(NC2=NCCN2)ccc2nccnc12.O=C(O)C(O)C(O)C(=O)O` [brimonidine, 5-bromo-6-(2-imidazolin-2-ylamino)quinoxaline D-tartrate], the “eye whitening in the right eye” value with eye redness (pH 7.0, at 0.5 hr, 1.25 hr, 2.25 hr and 3.25 hr) was “significant eye whitening”. Further, the “Redness (from 0 to 4) (right eye)” value in the data set with eye redness (time 0 hr (baseline)) is 2; with eye redness (time 0.05 hr) it was 0; with eye redness (time 0.5 hr), 0; with eye redness (time 1.25 hr), 0; with eye redness (time 2.25 hr), 0; with eye redness (time 3.25 hr), 0. The “pupil modulation in contralateral control (left eye)” value in the data set on scotopic pupil (pH 7.0 applied to right eye) is reported as “delayed but significant pupil modulation”. The “% reduction of scotopic pupil size (left eye)” value in the data set on scotopic pupil (time 0 hr (baseline)) is reported as 0%; in the data set with scotopic pupil (time 0.05 hr), 0%; with scotopic pupil (time 0.5 hr), 0%; with scotopic pupil (time 1.25 hr), 0%; with scotopic pupil (time 2.25 hr), 20%; with scotopic pupil (time 3.25 hr), 20%. Further, the “Scotopic pupil size (mm) (left eye)” value stood at 5 mm in the data set on scotopic pupil (time 0 hr (baseline)); 5 mm in the data set on scotopic pupil (time 0.05 hr); 5 mm with scotopic pupil (time 0.5 hr); 5 mm in the data set with scotopic pupil (time 1.25 hr); 4 mm in the data set on scotopic pupil (time 2.25 hr); 4 mm in the data set with scotopic pupil (time 3.25 hr). The “% reduction of scotopic pupil size (right eye)” value in the data set with scotopic pupil (time 0 hr (baseline)) is 0%; with scotopic pupil (time 0.05 hr), 0%; in the data set on scotopic pupil (time 0.5 hr), 10%; in the data set on scotopic pupil (time 1.25 hr), 20%; in the data set with scotopic pupil (time 2.25 hr) it was 30%; in the data set on scotopic pupil (time 3.25 hr), 30%. Further, the “Scotopic pupil size (mm) (right eye)” value turned out to be 5 mm in the data set with scotopic pupil (time 0 hr (baseline)); 5 mm in the data set on scotopic pupil (time 0.05 hr); 4.5 mm in the data set on scotopic pupil (time 0.5 hr); 4 mm with scotopic pupil (time 1.25 hr); 3.5 mm in the data set with scotopic pupil (time 2.25 hr); 3.5 mm in the data set on scotopic pupil (time 3.25 hr). Moreover, the Baseline pupil size in the data set on pupil size (baseline before instillation, dark conditions) turned out to be 6.2 mm. The “Onset of pupil reduction” value in the data set on pupil size (one eye, Day 1-20 Avg) lay in the range of 10 to 15 min; in the data set on pupil size (setting [3]), 10 to 15 min. In addition, the “Pupil reduction at 1 hour (mm)” value in the data set with pupil size (Day 1-20 Avg) and with pupil size (setting [3]) was not below 1 mm each time. For the same compound, the “Range (pupil size) at 3 hours” value in the data set on pupil size (Day 1-20 Avg) and in the data set with pupil size (setting [3]) was 3.8-4.2 throughout. Further, in the data set with pupil dilation (brimonidine […], pH 6.5, one individual who later responded at pH 7.1), the “pupil effect in one individual” value is listed as “no pupil effect”. Besides, the “treated patients with pupil modulation” value in the data set with pupil dilation (brimonidine […], pH 7.1, one eye, 4 individuals) is recorded as 100%. The “individuals who experienced reduced dilation” value in the data set on pupil dilation (topical brimonidine […], pH 6.5, one eye, 13 individuals, modest indoor lighting) is on record as 2 individuals. Further, the “treated patients with reduced dilation” value in the data set with pupil dilation (topical brimonidine […], pH 6.5, 13 individuals) is 15.4%. Further, in the data set on pupil dilation (topical brimonidine […], pH 7.1), the “individuals with pupil modulation” value was 4 out of 4. Further, the “surface vasoconstriction, redness and whiteness versus equivalent concentration of oxymetazoline” value with surface vasoconstriction was “improved surface vasoconstriction, reduced surface redness, and improved whiter appearance”.
Consider `Cc1ccccc1N1CCN(CCc2nnc3n2CCCC3)CC1` [dapiprazole, 5,6,7,8-tetrahydro-3-[2-(4-o,tolyl-1-piperazinypethyl]-8-triazolo[4,3-a]pyridine hydrochloride], for which the “effect on pupil size in dim light” value in the data set on pupil size in dim light (clinical application) is listed as “very little effect on pupil size in dim light”. Moreover, the “side effects upon application” value in data set [1] was “redness and frequently chemosis”.
As to `CC[C@@H]1C(=O)OC[C@@H]1Cc1cncn1C` [pilocarpine], the duration of effect result in the data set on pupil size in dim light (in vivo) was “lasts only a few hours”. In addition, the “pupil in dim light” value with pupil size in dim light (when first applied) is “below 3 mm”. Besides, the “side effects upon application” value in [1] was “brow ache, ciliary muscle contraction and pseudo myopia (muscle spasm of accommodation), and redness”.
In the case of `Cc1cccc([C@H](C)c2cnc[nH]2)c1C` [dexmedetomidine], in [2], the solubility is not below 0.1%.
On to `CCCC(=O)N1CCCN(c2nc(N)c3cc(OC)c(OC)cc3n2)CC1` [Bunazosin], for which, in the data set with pupil, the pupil reduction result is “about 1.0 mm”. For the same compound, in the data set on intraocular pressure, the intraocular pressure reduction result is listed as “about 20%”. Moreover, in the data set with conjunctival hyperemia, the “duration before return to baseline” value is reported as “about 24 hours” and the “mean conjunctival hyperemia score” value is listed as 1.5 /4.
Consider `C[C@H](Cc1cc2c(c(C(N)=O)c1)N(CCCO)CC2)NCCOc1ccccc1OCC(F)(F)F` [sidolosin], for which the floppy iris syndrome result in [1] was “floppy iris syndrome”.
For `CCOc1ccccc1OCCN[C@H](C)Cc1ccc(OC)c(S(N)(=O)=O)c1` [tamsulosin], the floppy iris syndrome entry in data set [1] is “floppy iris syndrome”.
